{
  "source": "patent US20130142830A1",
  "about": "“Tolerogenic Plasmacytoid Dendritic Cells Co-Expressing Cd8-Alpha And Cd8-Beta And Methods Of Inducing The Differentiation Of Regulatory T Cells Using Same” (UNIVERSITY OF SOUTHERN CALIFORNIA, priority 2011, published 2013)",
  "key": {"[1]": {"test_system": "naive OVA-specific CD4+ T cells", "assay": "In vitro co-culture of pDC subsets with naive OVA-specific CD4+ T cells, Foxp3 and IL-10 by flow cytometry", "format": "cell-based, mouse", "procedure": "(a) Flow cytometry of intracellular expression of Foxp3 in CD4^+ T cells cultured with CD8α^− CD8β^− pDCs, CD8α^+ CD8β^− or CD8α^+ CD8β^+ pDCs. Sorted CD8α^− CD8β^−, CD8α^+ CD8β^− or CD8α^+ CD8β^+ pDCs were preincubated 12 hours with either medium or Galectin-3 (10 μg/ml). Cells were then washed and co-cultured with OVA-specific CD4^+ T cells at a 1:10 ratio (pDC:T CD4^+) for 5 days in presence of either OVA323-339 (1 μg/ml) and/or TGF-β (1 ng/ml) as indicated. Cells were subsequently stained with CD3, CD4 and CD25 antibodies fixed, permeabilized and stained with an anti-Foxp3 antibody before flow cytometry analysis. […]\n(a) Gene expression of Aldhla1 Aldhla2, and Aldhla3 was assessed by real-time PCR in CD8α^−β^−, CD8α^+β^−, and CD8α^+β^+ pDCs from peripheral lymph nodes or in CD103^− and CD103^+ DCs from mesenteric lymph nodes of Fms-like tyrosine kinase 3-ligand (Flt3-L)-treated mice. […] P-values were calculated with Student's t-test. *P-value <0.05 (CD8α^+β^− pDC and CD8α^+β^+ pDC compared to CD8α^−β^−). ^#P-value <0.05 (CD103^+ cDC compared to CD103^− cDC). […] Cells were subsequently stained with anti-CD11c, anti-mPDCA1, anti-CD8α, and CD8αβ antibodies, and analyzed by flow cytometry to detect RALDH activity. […] Foxp3 expression was analyzed among CD3^+ CD4^+ CD25^+ cells; dot plots are representative of three independent experiments. […]"}, "pDCs": {"test_system": "pDCs", "assay": "TLR7/TLR9 stimulation of pDC subsets (R848, CpG): co-stimulatory molecules, CD8 expression, IFN-α and IL-10 ELISA", "format": "cell-based, mouse", "settings": "R848 10 μg/ml or CpG 10 μM, 18 hours", "procedure": "(a) Plasmacytoid DCs were isolated by magnetic separation from lymph nodes of Flt3L-treated mice. The surface expression of the costimulation molecules CD80 and CD86 was assessed on CD8α^− CD8β^− pDCs, CD8α^+ CD8β^− pDCs and CD8α^+ CD8β^+ pDCs subtypes after 18 hours of stimulation with R848 (10 μg/ml) or CpG (10 μM). Data are representative of three similar experiments. Shaded histograms represent isotype control antibodies; dashed lines, specific staining of untreated cells; solid black lines, specific staining of CpG treated cells and solid grey lines, specific staining of R848 treated cells. […] Cells were then washed and stained with CD8α and CD8β^− antibodies, APC fluorescence was analyzed by flow cytometry in the CD8α^− CD8β^− pDCs, CD8α^+ CD8β^− pDCs or CD8α^+ CD8β^+ pDCs subpopulations. […] Data are average (mean fluorescence intensity (MFI) at 37° C.)−(MFI at 4° C.)±SEM of three separate experiments. […] The amount of radioactivity related to the number of cells was evaluated in a scintillation counter. […]\nThe main function of DCs is to prime naïve T cells by presenting antigen and providing additional signals through co-stimulatory molecules and production of cytokines. To address whether the populations of pDCs described herein differ in these functions, we stimulated them with TLR ligands and assessed the expression of co-stimulatory molecules along with the cytokine production. […]"}, "DCs": {"test_system": "DCs", "assay": "In vivo expansion of DCs by Flt3L-expressing tumor cells", "parameters": "species or system mouse", "settings": "Flt3L treatment of BALB/c mice", "procedure": "To test whether an in vivo expansion of the population of DCs affects the expression of CD8α or CD8β at the surface of pDCs, tumor cells expressing Flt3L were transferred into BALB/c mice. Flt3L acts on hematopoietic stem cells and controls their differentiation into DCs, this treatment expands the population of DCs by 15 to 20 fold after 14 days without activating the cells. […] The expression of CD8α and CD8β was assessed simultaneously on pDCs (CD11c^+ BST2^+ cells) and on conventional DCs (cDCs, CD11c^+ BST2^− cells). At the surface of cDCs, only CD8α expression was detected (FIG. 2a). […] Accordingly, with the surface phenotype, CD8α gene expression was detected in CD8α^+β^− pDCs while both CD8α and CD8β genes were overexpressed in the CD8α^+β^+ subset (FIG. 2b). As expected CD8β gene expression was never detected in cDCs (FIG. 2b). […] Our data from B2m knockout mice confirmed the presence of CD8α or CD8β pDC repertoire, similar to the level detected in the wild type mice (FIG. 2c). To further assess the expression of CD8α or CD8β at mRNA level, we performed real time quantitative PCR on the sorted subpopulation of pDCs from B2m knockout mice and confirmed the results obtained in FIG. 2c at the mRNA expression level (FIG. 2d). […]"}},
  "data": [
    {"molecule": "CN1c2cc3c(cc2N=C(c2ccc(C(=O)O)cc2)c2ccc4ccccc4c21)C(C)(C)CCC3(C)C", "note": "[LE540]", "values": [
      {"measurement": "effect of RALDH inhibitor on conversion of naive CD4+ T cells by CD8α+β+ and CD8α+β− pDCs", "setting": "[1]; LE540 1 μM with TGF-β", "value": "completely blocked the conversion of naïve CD4^+ T cells"}
    ]},
    {"molecule": "CCOCc1nc2c(N)nc3ccccc3c2n1CC(C)(C)O", "note": "[R848]", "values": [
      {"measurement": "expression of CD8α and CD8β on pDCs following TLR stimulation", "setting": "pDCs", "value": "the expression of CD8α and CD8β decreases"}
    ]},
    {"molecule": "Galectin-3", "values": [
      {"measurement": "effect of Galectin-3 pre-incubation of pDCs on conversion of naive CD4+ T cells into Foxp3-expressing cells", "setting": "[1]; Galectin-3 10 μg/ml, 12 hours pre-incubation, TGF-β present", "value": "boost the capacity of pDCs to convert naïve CD4^+ T cells into Foxp3-expressing cells"}
    ]},
    {"molecule": "Flt3L: delivered by tumor cells expressing Flt3L; controls differentiation of hematopoietic stem cells into DCs (protein, UniProt P49771 27-235, looked up) Fms-related tyrosine kinase 3 …: TQDCSFQHSPISSDFAVKIRELSDYLLQDYPVTVASNLQDEELCGGLWRLVLAQRWMERLKTVAGSKMQGLLERVNTEIHFVTKCAFQPPPSCLRFVQTNISRLLQETSEQLVALKPWITRQNFSRCLELQCQPDSSTLPPPWSPRPLEATAPTAPQPPLLLLLLLPVGLLLLAAAWCLHWQRTRRRTPRPGEQVPPVPSPQDLLLVEH", "values": [
      {"measurement": "level of expression of CD8α and CD8β on pDCs", "setting": "DCs", "value": "does not significantly affect"}
    ]}
  ]
}
